This note sets out measurements from patent US20250353891A1 (MEDIMMUNE LIMITED, priority 2022, published 2025).

Starred links: 1 amine or outer side, 2 acyl side, 3 side chain; linkers in the order of their positions; H or OH if unused. Non-standard residues stand in square brackets, D forms with d. Residues, ends and D or L forms follow the SMILES beside them. Groups on a side chain read outwards from the residue. *: point of attachment. C18 diacid = O=C(O)CCCCCCCCCCCCCCCCC(=O)*; γGlu = O=C(O)[C@H](CCC(=O)[*:2])N[*:1]; αMeF = C[C@](N)(Cc1ccccc1)C(=O)O; AEEA = NCCOCCOCC(=O)O; Aib = CC(C)(N)C(=O)O

The target of experiment [1] is human glucagon receptor (hGCGR) (Homo sapiens, UniProt P47871). In words: cAMP production (HTRF) in CHO cells expressing hGCGR. To be noted: Table 6, peptides modified at position 17; cAMP in CHO hGCGR cells; geometric mean; read-out: hGluc-R EC50. The class given is cell-based. The arrangement: expressed in transfected cells. As for the experimental part: Cells were re-suspended in assay buffer at a batch-dependent optimized concentration (typically hGLP-1R cells at 1×10^5 cells/mL, hGCGR cells at 2×10^5 cells/mL).
Cells were added to the assay plate using a multidrop dispenser and incubated at room temperature for 30 minutes before measuring the cAMP level using a cAMP dynamic 2 homogeneous time resolved Fluorescence (HTRF) kit (Cisbio Bioassays #62AM4PEJ) following the two-step protocol as per manufacturer's recommendations. In brief, anti-cAMP cryptate (donor fluorophore) and cAMP-d2 (acceptor fluorophore) were made up separately by diluting each 1 in 20 in conjugate and lysis buffer provided in the kit. Anti-CAMP cryptate was added to all wells of the assay plate, followed by cAMP-d2 added to all wells except non-specific binding (NSB) wells (to which conjugate and lysis buffer was added).
Data was transformed to % Delta F as described in the manufacturer's guidelines and analyzed by 4-parameter logistic fit to determine EC50 values.
In general terms: Cyclic AMP is a second messenger, typically raised through Gs and lowered through Gi signalling.

Experiment [2] deals with human GLP-1 receptor (hGLP-1R) (Homo sapiens, UniProt P43220). In words: cAMP production (HTRF) in CHO cells expressing hGLP-1R. The class given is cell-based. The arrangement: expressed in transfected cells. To be noted: for EC50: Table 6, peptides modified at position 17, cAMP in CHO hGLP-1R cells, geometric mean, read-out: hGLP-1R EC50; for % Relative Potency Ratio: Table 6, % GLP-1R activity relative to GLP-1 / % GlucR activity relative to glucagon. An outline of the steps: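 Cells were resuspended in assay buffer at batch-optimized density, typically 1×10^5 cells/mL for hGLP-1R and 2×10^5 cells/mL for hGCGR. After 30 min incubation at room temperature with compound, cAMP was measured by two-step HTRF. EC50 values came from 4-parameter logistic fits of % Delta F.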
Chain of human GLP-1 receptor (hGLP-1R) (P43220 24-463): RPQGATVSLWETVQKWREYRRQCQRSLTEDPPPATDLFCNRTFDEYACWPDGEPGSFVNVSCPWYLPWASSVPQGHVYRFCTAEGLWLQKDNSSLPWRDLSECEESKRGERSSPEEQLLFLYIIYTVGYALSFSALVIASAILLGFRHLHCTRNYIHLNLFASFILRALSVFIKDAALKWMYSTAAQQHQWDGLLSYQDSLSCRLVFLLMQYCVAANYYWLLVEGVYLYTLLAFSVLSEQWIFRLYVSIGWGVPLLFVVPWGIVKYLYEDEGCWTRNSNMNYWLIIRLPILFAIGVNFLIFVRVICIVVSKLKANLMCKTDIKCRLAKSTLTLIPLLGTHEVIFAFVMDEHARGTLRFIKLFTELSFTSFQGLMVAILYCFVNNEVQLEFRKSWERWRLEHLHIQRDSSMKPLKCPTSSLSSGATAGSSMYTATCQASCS

Chain of human glucagon receptor (hGCGR) (P47871 26-477): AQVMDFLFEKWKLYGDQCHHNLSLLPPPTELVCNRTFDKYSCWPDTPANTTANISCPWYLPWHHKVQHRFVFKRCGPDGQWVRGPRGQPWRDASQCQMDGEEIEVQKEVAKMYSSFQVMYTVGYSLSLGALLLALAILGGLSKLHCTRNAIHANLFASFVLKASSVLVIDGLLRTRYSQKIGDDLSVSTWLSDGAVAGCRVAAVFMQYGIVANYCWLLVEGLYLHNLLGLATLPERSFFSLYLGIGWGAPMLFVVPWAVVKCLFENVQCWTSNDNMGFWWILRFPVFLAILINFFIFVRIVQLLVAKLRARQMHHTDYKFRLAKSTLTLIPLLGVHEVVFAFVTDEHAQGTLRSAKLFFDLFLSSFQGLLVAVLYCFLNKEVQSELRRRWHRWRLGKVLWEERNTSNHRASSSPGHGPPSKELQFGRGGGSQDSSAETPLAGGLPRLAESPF

As to `CC[C@H](C)[C@H](NC(=O)[C@H](Cc1c[nH]c2ccccc12)NC(=O)[C@H](CCC(N)=O)NC(=O)[C@@H](NC(=O)[C@H](Cc1ccccc1)NC(=O)[C@H](CC(=O)O)NC(=O)[C@H](CCC(N)=O)NC(=O)[C@H](C)NC(=O)[C@H](C)NC(=O)[C@H](CCCCNC(=O)CC[C@H](NC(=O)CCCCCCCCCCCCCCCCC(=O)O)C(=O)O)NC(=O)[C@H](CO)NC(=O)[C@H](CC(=O)O)NC(=O)[C@H](CC(C)C)NC(=O)[C@](C)(Cc1ccccc1)NC(=O)[C@H](CCCCN)NC(=O)[C@H](CO)NC(=O)[C@@H](NC(=O)[C@H](CC(=O)O)NC(=O)[C@H](CO)NC(=O)[C@@H](NC(=O)[C@](C)(Cc1ccccc1)NC(=O)[C@H](CO)NC(=O)CNC(=O)[C@H](CCC(N)=O)NC(=O)[C@H](CO)NC(=O)[C@@H](N)Cc1c[nH]cn1)[C@@H](C)O)C(C)C)C(C)C)C(=O)N[C@@H](C)C(=O)N[C@@H](CC(N)=O)C(=O)N[C@H](C(N)=O)[C@@H](C)O` [Peptide 3] (H-HSQGS[αMeF]TSDVSK[αMeF]LDSK([γGlu-C18 diacid])AAQDFVQWIANT-NH2; N-terminus assumed), the EC50 in experiment [1] is 0.149 nM. In experiment [2], the EC50 was 0.069 nM and the “% Relative Potency Ratio” value came out at 4.3.

In the case of `CC[C@H](C)[C@H](NC(=O)[C@H](Cc1c[nH]c2ccccc12)NC(=O)[C@H](CCC(N)=O)NC(=O)[C@@H](NC(=O)[C@H](Cc1ccccc1)NC(=O)[C@H](CC(=O)O)NC(=O)[C@H](CCC(N)=O)NC(=O)[C@H](C)NC(=O)[C@H](C)NC(=O)[C@H](CCCCNC(=O)COCCOCCNC(=O)COCCOCCNC(=O)CC[C@H](NC(=O)CCCCCCCCCCCCCCCCC(=O)O)C(=O)O)NC(=O)[C@H](CO)NC(=O)[C@H](CC(=O)O)NC(=O)[C@H](CC(C)C)NC(=O)[C@](C)(Cc1ccccc1)NC(=O)[C@H](CCCCN)NC(=O)[C@H](CO)NC(=O)[C@@H](NC(=O)[C@H](CC(=O)O)NC(=O)[C@H](CO)NC(=O)[C@@H](NC(=O)[C@](C)(Cc1ccccc1)NC(=O)[C@H](CO)NC(=O)CNC(=O)[C@H](CCC(N)=O)NC(=O)[C@H](CO)NC(=O)[C@@H](N)Cc1c[nH]cn1)[C@@H](C)O)C(C)C)C(C)C)C(=O)N[C@@H](C)C(=O)N[C@@H](CC(N)=O)C(=O)N[C@H](C(N)=O)[C@@H](C)O` [Peptide 4] (H-HSQGS[αMeF]TSDVSK[αMeF]LDSK([AEEA-AEEA-γGlu-C18 diacid])AAQDFVQWIANT-NH2), the EC50 in experiment [1] came to 1.17 nM. Also, in experiment [2], the 50% effective concentration (EC50) turned out to be 0.24 nM and the “% Relative Potency Ratio” value is listed as 9.6.

Take `CC[C@H](C)[C@H](NC(=O)C(C)(C)NC(=O)[C@H](CCC(N)=O)NC(=O)[C@@H](NC(=O)[C@](C)(Cc1ccccc1)NC(=O)[C@H](CC(=O)O)NC(=O)[C@H](CCC(N)=O)NC(=O)[C@H](C)NC(=O)[C@H](C)NC(=O)[C@H](CCCCNC(=O)COCCOCCNC(=O)COCCOCCNC(=O)CC[C@H](NC(=O)CC[C@H](NC(=O)CCCCCCCCCCCCCCCCC(=O)O)C(=O)O)C(=O)O)NC(=O)[C@H](CO)NC(=O)[C@H](CC(=O)O)NC(=O)[C@H](CC(C)C)NC(=O)[C@](C)(Cc1ccccc1)NC(=O)[C@H](CCCCN)NC(=O)[C@H](CO)NC(=O)[C@@H](NC(=O)[C@H](CC(=O)O)NC(=O)[C@H](CO)NC(=O)[C@@H](NC(=O)[C@](C)(Cc1ccccc1)NC(=O)[C@H](CO)NC(=O)CNC(=O)[C@H](CCC(N)=O)NC(=O)C(C)(C)NC(=O)[C@@H](N)Cc1c[nH]cn1)[C@@H](C)O)C(C)C)C(C)C)C(=O)N[C@@H](C)C(=O)N[C@@H](CC(N)=O)C(N)=O` [Peptide 5] (H-H[Aib]QGS[αMeF]TSDVSK[αMeF]LDSK([AEEA-AEEA-γGlu-γGlu-C18 diacid])AAQD[αMeF]VQ[Aib]IAN-NH2; N-terminus assumed): the EC50 was found to be 7.14 nM in experiment [1] and 0.283 nM in experiment [2]. Also, the “% Relative Potency Ratio” value in experiment [2] is listed as 49.9.

Consider `CC[C@H](C)[C@H](NC(=O)[C@H](Cc1c[nH]c2ccccc12)NC(=O)[C@H](CCC(=O)O)NC(=O)[C@@H](NC(=O)[C@](C)(Cc1ccccc1)NC(=O)[C@H](CC(=O)O)NC(=O)[C@H](CCC(N)=O)NC(=O)[C@H](C)NC(=O)[C@H](C)NC(=O)[C@H](CCCCNC(=O)COCCOCCNC(=O)COCCOCCNC(=O)CC[C@H](NC(=O)CCCCCCCCCCCCCCCCC(=O)O)C(=O)O)NC(=O)[C@H](CO)NC(=O)[C@H](CC(=O)O)NC(=O)[C@H](CC(C)C)NC(=O)[C@](C)(Cc1ccccc1)NC(=O)[C@H](CCCCN)NC(=O)[C@H](CO)NC(=O)[C@@H](NC(=O)[C@H](CC(=O)O)NC(=O)[C@H](CO)NC(=O)[C@@H](NC(=O)[C@](C)(Cc1ccccc1)NC(=O)[C@H](CO)NC(=O)CNC(=O)[C@H](Cc1c[nH]cn1)NC(=O)C(C)(C)NC(=O)[C@@H](N)Cc1c[nH]cn1)[C@@H](C)O)C(C)C)C(C)C)C(=O)N[C@@H](C)C(=O)N[C@@H](CC(N)=O)C(N)=O` [Peptide 6] (H-H[Aib]HGS[αMeF]TSDVSK[αMeF]LDSK([AEEA-AEEA-γGlu-C18 diacid])AAQD[αMeF]VEWIAN-NH2; N-terminus assumed), for which, in experiment [1], the EC50 was found to be 0.516 nM. For the same compound, in experiment [2], the EC50 was determined as 0.568 nM and the “% Relative Potency Ratio” value is 1.8.

In the case of `CC[C@H](C)[C@H](NC(=O)[C@H](Cc1c[nH]c2ccccc12)NC(=O)[C@H](CCC(N)=O)NC(=O)[C@@H](NC(=O)[C@H](Cc1ccccc1)NC(=O)[C@H](CC(=O)O)NC(=O)[C@H](CCC(N)=O)NC(=O)[C@H](C)NC(=O)[C@H](C)NC(=O)[C@H](CCCCNC(=O)COCCOCCNC(=O)COCCOCCNC(=O)CC[C@H](NC(=O)CCCCCCCCCCCCCCCCC(=O)O)C(=O)O)NC(=O)[C@H](CO)NC(=O)[C@H](CC(=O)O)NC(=O)[C@H](CC(C)C)NC(=O)[C@](C)(Cc1ccccc1)NC(=O)[C@H](CCCCN)NC(=O)[C@H](CO)NC(=O)[C@@H](NC(=O)[C@H](CC(=O)O)NC(=O)[C@H](CO)NC(=O)[C@@H](NC(=O)[C@](C)(Cc1ccccc1)NC(=O)[C@H](CO)NC(=O)CNC(=O)[C@H](Cc1c[nH]cn1)NC(=O)C(C)(C)NC(=O)[C@@H](N)Cc1c[nH]cn1)[C@@H](C)O)C(C)C)C(C)C)C(=O)N[C@@H](C)C(=O)N[C@@H](CC(N)=O)C(=O)N[C@H](C(N)=O)[C@@H](C)O` [Peptide 8] (H-H[Aib]HGS[αMeF]TSDVSK[αMeF]LDSK([AEEA-AEEA-γGlu-C18 diacid])AAQDFVQWIANT-NH2; N-terminus assumed), the EC50 in experiment [1] is 0.0536 nM. In experiment [2], the EC50 worked out at 0.0878 nM and the “% Relative Potency Ratio” value was 1.2.

As to `CC[C@H](C)[C@H](NC(=O)[C@H](Cc1c[nH]c2ccccc12)NC(=O)[C@H](CCC(N)=O)NC(=O)[C@@H](NC(=O)[C@H](Cc1ccccc1)NC(=O)[C@H](CC(=O)O)NC(=O)[C@H](CCCNC(=N)N)NC(=O)[C@H](C)NC(=O)[C@H](C)NC(=O)[C@H](CCCCNC(=O)COCCOCCNC(=O)COCCOCCNC(=O)CC[C@H](NC(=O)CCCCCCCCCCCCCCCCC(=O)O)C(=O)O)NC(=O)[C@H](CO)NC(=O)[C@H](CC(=O)O)NC(=O)[C@H](CC(C)C)NC(=O)[C@](C)(Cc1ccccc1)NC(=O)[C@H](CCCCN)NC(=O)[C@H](CO)NC(=O)[C@@H](NC(=O)[C@H](CC(=O)O)NC(=O)[C@H](CO)NC(=O)[C@@H](NC(=O)[C@](C)(Cc1ccccc1)NC(=O)[C@H](CO)NC(=O)CNC(=O)[C@H](Cc1c[nH]cn1)NC(=O)C(C)(C)NC(=O)[C@@H](N)Cc1c[nH]cn1)[C@@H](C)O)C(C)C)C(C)C)C(=O)N[C@@H](C)C(=O)N[C@@H](CC(N)=O)C(=O)N[C@H](C(N)=O)[C@@H](C)O` [Peptide 9] (H-H[Aib]HGS[αMeF]TSDVSK[αMeF]LDSK([AEEA-AEEA-γGlu-C18 diacid])AARDFVQWIANT-NH2; N-terminus assumed), the EC50 in experiment [1] was determined as 0.279 nM. In experiment [2], the EC50 was 0.242 nM and the “% Relative Potency Ratio” value turned out to be 2.3.

On to `CC[C@H](C)[C@H](NC(=O)[C@H](Cc1c[nH]c2ccccc12)NC(=O)[C@H](CCC(=O)O)NC(=O)[C@@H](NC(=O)[C@H](Cc1ccccc1)NC(=O)[C@H](CC(=O)O)NC(=O)[C@H](CCCNC(=N)N)NC(=O)[C@H](C)NC(=O)[C@H](C)NC(=O)[C@H](CCCCNC(=O)COCCOCCNC(=O)COCCOCCNC(=O)CC[C@H](NC(=O)CCCCCCCCCCCCCCCCC(=O)O)C(=O)O)NC(=O)[C@H](CO)NC(=O)[C@H](CC(=O)O)NC(=O)[C@H](CC(C)C)NC(=O)[C@](C)(Cc1ccccc1)NC(=O)[C@H](CCCCN)NC(=O)[C@H](CO)NC(=O)[C@@H](NC(=O)[C@H](CC(=O)O)NC(=O)[C@H](CO)NC(=O)[C@@H](NC(=O)[C@](C)(Cc1ccccc1)NC(=O)[C@H](CO)NC(=O)CNC(=O)[C@H](Cc1c[nH]cn1)NC(=O)C(C)(C)NC(=O)[C@@H](N)Cc1c[nH]cn1)[C@@H](C)O)C(C)C)C(C)C)C(=O)N[C@@H](C)C(=O)N[C@@H](CC(N)=O)C(=O)N[C@H](C(N)=O)[C@@H](C)O` [Peptide 10] (H-H[Aib]HGS[αMeF]TSDVSK[αMeF]LDSK([AEEA-AEEA-γGlu-C18 diacid])AARDFVEWIANT-NH2; N-terminus assumed), for which the half-maximal effective concentration (EC50) in experiment [1] stood at 0.377 nM. Further, in experiment [2], the EC50 stood at 0.658 nM and the “% Relative Potency Ratio” value came out at 1.1.

For orientation: EC50 means the midpoint of the concentration-response curve.
